Assay results reported in article PMC6494879, “Drug resistance emergence in macaques administered cabotegravir long-acting for pre-exposure prophylaxis during acute SHIV infection” (Nature Communications, 2019).
Like-named read-outs stand apart in the source and are kept apart here.

Key:
[1] = system: SIV integrase WT (SIV IN RTV pseudovirus); experiment: organism not typed; type: cell-based
[2] = system: SIV integrase E92Q (SIV IN RTV pseudovirus); type: cell-based; conditions: E92Q SIV integrase mutant
[3] = system: SIV integrase E92Q/G140R (SIV IN RTV pseudovirus); type: cell-based; conditions: E92Q/G140R SIV integrase mutant
in vivo = conditions: Indian, rhesus monkey
Experimental: (§1) CAB LA (200 mg/mL injectable stock aqueous suspension) was given at a dose of 50 mg kg^−1 under anesthesia by intramuscular injection into the quadriceps. Volumes greater than 1.0 mL were divided into two injection sites.

[4] = system: SIV integrase A122T (SIV IN RTV pseudovirus); experiment: organism not typed; type: cell-based
[5] = system: SIV integrase G118R/A122T (SIV IN RTV pseudovirus); type: cell-based; conditions: G118R/A122T SIV integrase mutant
[6] = ECLAIR trial; cited from earlier work
HIV-1 = conditions: read-out: 50% inhibitory concentration (IC50); cited from earlier work
[7] = system: SIV integrase I250V (SIV IN RTV pseudovirus); experiment: organism not typed; type: cell-based
[8] = for Median CAB: plasma, median of treated macaques
Experimental: as §1

Compound: C[C@H]1CO[C@@H]2Cn3cc(C(=O)NCc4ccc(F)cc4F)c(=O)c(O)c3C(=O)N12 [CAB, cabotegravir]
- EC50 ([1]; HEK293): 1.19 nM
- fold-change relative to wild type integrase ([1]; WT SIV integrase): 1 fold
- fold-change relative to wild type integrase [2]: 2.5 fold
- fold-change relative to wild type integrase [3]: > 840 fold
- half-life (in vivo): 10.7 days
- EC50 ([4]; HEK293): 1.51 nM
- fold-change relative to wild type integrase ([4]; {}): 1.3 fold
- fold-change relative to wild type integrase [5]: > 840 fold
- subjects with CAB still detectable 52 weeks after the last injection [6]: 14%
- IC50 (HIV-1): ~0.22 nM
- EC50 ([7]; HEK293): 1.04 nM
- fold-change relative to wild type integrase ([7]; {}): 0.9 fold
- time after which plasma CAB was below the limit of detection of the assay ([8]; four of the six animals): 115 to 176 days
- Plasma CAB concentration ([8]; macaque 01D520, day 18): 11.2 µg/mL
- Plasma CAB concentration ([8]; macaque 01D520, day 25): 7.1 µg/mL
- Plasma CAB concentration ([8]; macaque 01D520, day 32): 2.24 µg/mL
- Plasma CAB concentration ([8]; macaque 01D520, day 39): 0.239 µg/mL
- Plasma CAB concentration ([8]; macaque 01D520, day 46): 6.87 µg/mL
- Plasma CAB concentration ([8]; macaque 01D520, day 53): 5.88 µg/mL
- Plasma CAB concentration ([8]; macaque 01D520, day 57): 4.57 µg/mL
- Plasma CAB concentration ([8]; macaque 01D520, day 67): 0.943 µg/mL
- Plasma CAB concentration ([8]; macaque 01D520, day 74): 6.2 µg/mL
- Plasma CAB concentration ([8]; macaque 01D520, day 81): 4.17 µg/mL
- Plasma CAB concentration ([8]; macaque 01D520, day 88): 2.42 µg/mL
- Plasma CAB concentration ([8]; macaque 01D520, day 95): 0.992 µg/mL
- Plasma CAB concentration ([8]; macaque 01D520, day 102): 0.432 µg/mL
- Plasma CAB concentration ([8]; macaque 01D520, day 106): 0.273 µg/mL
- Plasma CAB concentration ([8]; macaque 10D181, day 18): 3.2 µg/mL
- Plasma CAB concentration ([8]; macaque 10D181, day 25): 3.88 µg/mL
- Plasma CAB concentration ([8]; macaque 10D181, day 32): 2.79 µg/mL
- Plasma CAB concentration ([8]; macaque 10D181, day 39): 1.33 µg/mL
- Plasma CAB concentration ([8]; macaque 10D181, day 46): 3.45 µg/mL
- Plasma CAB concentration ([8]; macaque 10D181, day 53): 5.06 µg/mL
- Plasma CAB concentration ([8]; macaque 10D181, day 57): 3.47 µg/mL
- Plasma CAB concentration ([8]; macaque 10D181, day 67): 1.51 µg/mL
- Plasma CAB concentration ([8]; macaque 10D181, day 74): 2.76 µg/mL
- Plasma CAB concentration ([8]; macaque 10D181, day 81): 3.57 µg/mL
- Plasma CAB concentration ([8]; macaque 10D181, day 88): 2.78 µg/mL
- Plasma CAB concentration ([8]; macaque 10D181, day 95): 1.5 µg/mL
- Plasma CAB concentration ([8]; macaque 10D181, day 102): 0.454 µg/mL
- Plasma CAB concentration ([8]; macaque 10D181, day 106): 0.227 µg/mL
- Plasma CAB concentration ([8]; macaque 33996, day 18): 5.68 µg/mL
- Plasma CAB concentration ([8]; macaque 33996, day 25): 6.38 µg/mL
- Plasma CAB concentration ([8]; macaque 33996, day 32): 4.05 µg/mL
- Plasma CAB concentration ([8]; macaque 33996, day 39): 3.3 µg/mL
- Plasma CAB concentration ([8]; macaque 33996, day 46): 5.86 µg/mL
- Plasma CAB concentration ([8]; macaque 33996, day 53): 9.39 µg/mL
- Plasma CAB concentration ([8]; macaque 33996, day 57): 9.76 µg/mL
- Plasma CAB concentration ([8]; macaque 33996, day 67): 1.4 µg/mL
- Plasma CAB concentration ([8]; macaque 33996, day 74): 4.57 µg/mL
- Plasma CAB concentration ([8]; macaque 33996, day 81): 6.04 µg/mL
- Plasma CAB concentration ([8]; macaque 33996, day 88): 3.04 µg/mL
- Plasma CAB concentration ([8]; macaque 33996, day 95): 1.43 µg/mL
- Plasma CAB concentration ([8]; macaque 33996, day 102): 0.816 µg/mL
- Plasma CAB concentration ([8]; macaque 33996, day 106): 0.611 µg/mL
- Plasma CAB concentration ([8]; macaque 35451, day 18): 6.34 µg/mL
- Plasma CAB concentration ([8]; macaque 35451, day 25): 4.47 µg/mL
- Plasma CAB concentration ([8]; macaque 35451, day 32): 1.84 µg/mL
- Plasma CAB concentration ([8]; macaque 35451, day 39): 0.819 µg/mL
- Plasma CAB concentration ([8]; macaque 35451, day 46): 2.55 µg/mL
- Plasma CAB concentration ([8]; macaque 35451, day 53): 4.01 µg/mL
- Plasma CAB concentration ([8]; macaque 35451, day 57): 6.17 µg/mL
- Plasma CAB concentration ([8]; macaque 35451, day 67): 3.19 µg/mL
- Plasma CAB concentration ([8]; macaque 35451, day 74): 4.1 µg/mL
- Plasma CAB concentration ([8]; macaque 35451, day 81): 2.89 µg/mL
- Plasma CAB concentration ([8]; macaque 35451, day 88): 3.28 µg/mL
- Plasma CAB concentration ([8]; macaque 35451, day 95): 2.43 µg/mL
- Plasma CAB concentration ([8]; macaque 35451, day 102): 2.21 µg/mL
- Plasma CAB concentration ([8]; macaque 35451, day 106): 1.25 µg/mL
- Plasma CAB concentration ([8]; macaque CH54, day 18): 5.12 µg/mL
- Plasma CAB concentration ([8]; macaque CH54, day 25): 5.14 µg/mL
- Plasma CAB concentration ([8]; macaque CH54, day 32): 3.53 µg/mL
- Plasma CAB concentration ([8]; macaque CH54, day 39): 1.14 µg/mL
- Plasma CAB concentration ([8]; macaque CH54, day 46): 2.99 µg/mL
- Plasma CAB concentration ([8]; macaque CH54, day 53): 2.32 µg/mL
- Plasma CAB concentration ([8]; macaque CH54, day 57): 3.27 µg/mL
- Plasma CAB concentration ([8]; macaque CH54, day 67): 4.33 µg/mL
- Plasma CAB concentration ([8]; macaque CH54, day 74): 5.39 µg/mL
- Plasma CAB concentration ([8]; macaque CH54, day 81): 5.03 µg/mL
- Plasma CAB concentration ([8]; macaque CH54, day 88): 3.45 µg/mL
- Plasma CAB concentration ([8]; macaque CH54, day 95): 1.97 µg/mL
- Plasma CAB concentration ([8]; macaque CH54, day 102): 1.41 µg/mL
- Plasma CAB concentration ([8]; macaque CH54, day 106): 0.707 µg/mL
- Plasma CAB concentration ([8]; macaque CJ92, day 18): 6.99 µg/mL
- Plasma CAB concentration ([8]; macaque CJ92, day 25): 3.55 µg/mL
- Plasma CAB concentration ([8]; macaque CJ92, day 32): 3.13 µg/mL
- Plasma CAB concentration ([8]; macaque CJ92, day 39): 2.92 µg/mL
- Plasma CAB concentration ([8]; macaque CJ92, day 46): 3.62 µg/mL
- Plasma CAB concentration ([8]; macaque CJ92, day 53): 2.88 µg/mL
- Plasma CAB concentration ([8]; macaque CJ92, day 57): 3.47 µg/mL
- Plasma CAB concentration ([8]; macaque CJ92, day 67): 3.7 µg/mL
- Plasma CAB concentration ([8]; macaque CJ92, day 74): 5.46 µg/mL
- Plasma CAB concentration ([8]; macaque CJ92, day 81): 6.56 µg/mL
- Plasma CAB concentration ([8]; macaque CJ92, day 88): 4.022 µg/mL
- Plasma CAB concentration ([8]; macaque CJ92, day 95): 1.93 µg/mL
- Plasma CAB concentration ([8]; macaque CJ92, day 102): 1.54 µg/mL
- Plasma CAB concentration ([8]; macaque CJ92, day 106): 0.994 µg/mL
- Median CAB ([8]; day 18): 6.01 µg/mL
- Median CAB ([8]; day 25): 4.805 µg/mL
- Median CAB ([8]; day 32): 2.96 µg/mL
- Median CAB ([8]; day 39): 1.235 µg/mL
- Median CAB ([8]; day 46): 3.535 µg/mL
- Median CAB ([8]; day 53): 4.535 µg/mL
- Median CAB ([8]; day 57): 4.02 µg/mL
- Median CAB ([8]; day 67): 2.35 µg/mL
- Median CAB ([8]; day 74): 4.98 µg/mL
- Median CAB ([8]; day 81): 4.6 µg/mL
- Median CAB ([8]; day 88): 3.16 µg/mL
- Median CAB ([8]; day 95): 1.715 µg/mL
- Median CAB ([8]; day 102): 1.113 µg/mL
- Median CAB ([8]; day 106): 0.659 µg/mL
- CAB in plasma at the last measurement on day 204 ([8]; remaining two animals): detectable
